# Measurements reported in patent US20070167438A1, “Treatment of substance abuse” (Wyeth, priority 2006, published 2007).
# Tested on: Rats
# Test: Open field locomotor activity (distance moved, zones crossed) with or without cocaine
# Format: in vivo
# Details: open field 1 hour after dosing, five minute test
# Procedure: Using (9aR,12aS)-4,5,6,7,9,9a,10,11,12,12a-decahydrocyclopenta[c][1,4]diazepino[6,7,1-ij]quinoline hydrochloride (Compound 1) as an example, the Rats were dosed either with vehicle or with cocaine in the presence or absence of Compound 1 (1.7 mg/kg. sc). One hour after dosing (i.p. & s.c.), rats were put in a open field, where distance moved and zones crossed were recorded by the ethovision program.
# Animals were brought to the lab room 1 hour before the start of the experiment. Rats were injected with compound(s) 1 hour before being placed in the open field. Rats were then placed in open field, and the test lasted for five minutes.
smiles,measurement,setting,value
"Cl.c1cc2c3c(c1)[C@H]1CCC[C@H]1CN3CCNC2 [Compound 1, (9aR,12aS)-4,5,6,7,9,9a,10,11,12,12a-decahydrocyclopenta[c][1,4]diazepino[6,7,1-ij]quinoline hydrochloride]",reversal of the hyperactivity produced by cocaine,Compound 1 1.7 mg/kg sc + cocaine 3 mg/kg ip,completely reversed
same,effect on locomotor activity alone,Compound 1 1.7 mg/kg sc + vehicle,no effect
